In patent US20210292680A1, “MULTIFUNCTIONAL AROMATIC ALCOHOLS FOR PERSONAL CARE, HOME CARE AND INDUSTRIAL AND INSTITUTIONAL COMPOSITIONS” (EMERALD KALAMA CHEMICAL, LLC, priority 2018, published 2021):

Tests used:
[1] = Shear ramp, oil-in-water emulsion (viscosity); format: physicochemical; conditions: Vanicream skin lotion, concentrations up to 0.5 wt. % aromatic alcohol, 25° C
Protocol: Shear Ramp oil-in-water emulsion: A 25 mm parallel plate geometry was used on an AR2000ex rheometer at 25° C. A gap of 600 μm was used. The shear was ramped from 0 s^−1 to 100 s^−1 over one minute. Viscosity readings are expressed in Pa·s.
R=3 Aromatic Alcohol. An R=3 aromatic alcohol, i.e., 3-phenylpropanol, was tested in a commercial oil-in-water emulsion, i.e., Vanicream® skin lotion, at 0.1 wt. %, 0.25 wt. % and 0.5 wt. % addition and compared to a control (without aromatic alcohol). […] The low shear (at 10 s^−1) viscosity was increased 68% over the control, while high shear viscosity (at 70 s^−1) increased roughly 100% (FIG. 1). The increase in high and low shear viscosity achieved desirable rheological traits such as richness, creaminess, and enhanced texture and skin feel in this end use personal care product with the addition of the aromatic alcohol. This unexpected result allows personal care and home care formulators, among others, to reduce or eliminate use of separate rheology modifiers to manipulate the viscosity of the final product.

[2] = Shear ramp, aqueous solution (viscosity); format: physicochemical; conditions: hand dish wash
Protocol: Shear Ramp aqueous solution: The 40 mm cone and plate geometry was used on an AR2000ex rheometer at 25° C. A gap of 29 μm was used. The shear was ramped from 0 s^−1 to 2000 s^−1 over six minutes. Shear rate is expressed in s^−1 or 1/s. Viscosity readings are expressed in Pa·s.
At 0.5 wt. %, the low shear viscosity increased roughly 36% over the control, while high shear viscosity increased roughly 43%. (Results not shown.)
R=4 Aromatic Alcohols. Similarly, viscosity modifying behavior is observed in a hand dish wash aqueous surfactant solution using an aromatic alcohol, where R=4 carbons (2-methyl-3-phenylpropanol). […] For 0.5 wt. % aromatic alcohol, the low shear viscosity increased 110% over the control, while high shear viscosity increased approximately 37%. At 1.0 wt. % aromatic alcohol, the viscosity profile changed, yielding increases in low and high shear viscosity of 56% and 94%, respectively.

[3] = Process defoaming evaluation (modified ASTM E2407-04); conditions: 0.4 wt. % aromatic alcohol; 2.0 wt. % BioSoft N1-7 solution
Protocol: Defoaming evaluation: Process defoaming was tested using a modified ASTM method (E2407-04 (2015) Standard Test Method for Effectiveness of Defoaming Agents). 250 mL of a 2.0 wt. % surfactant solution was blended at the highest speed setting for 30 seconds, then let sit for 3 minutes. The initial foam height is measured, and then 0.4 wt. % defoamer is dropped onto the surface of the foam. The blender is turned on low speed and the solution is mixed for 1 minute. Foam height is re-measured after an additional five minutes of sitting.
Process defoaming was tested using a modified ASTM method (E2407-04 (2015) Standard Test Method for Effectiveness of Defoaming Agents) to assess surfactants and determine if there was a relationship between foam destabilization and surfactant type. Two different surfactant solutions were tested. 2.0 wt. % surfactant solutions were prepared as controls using BioSoft® N1-7 and SLES. Thereafter, 0.4 wt. % aromatic alcohols (R=3 and R=4) were added to each surfactant solution for comparison to the controls. After agitation to generate foam, the percent of initial foam volume loss was far less for the control (without aromatic alcohols).

[4] = Final product foam stability (Blender Foam Volume/Drainage method); conditions: 0.5 wt. % aromatic alcohol incorporated into products
Protocol: Final product foam stability was tested using Blender Foam Volume/Drainage method published by Henkel Corp. 1981.
In the foam loss evaluation above, foam destabilization occurred at the time of addition (with mixing) of the aromatic alcohol. Further testing was performed to determine if the foaming ability of final products would be negatively impacted if aromatic alcohols were added to the formulations during the production process. A variety of commercial products were selected for testing, and 0.5 wt. % of aromatic alcohol (R=3, 3-phenylpropanol) was added to each. […] Foam stability of these commercial products was not reduced by the addition of aromatic alcohol.

[5] = Time to dissolve; format: physicochemical; conditions: water with 1 wt. % aromatic alcohol
Protocol: Time to dissolve: Aromatic alcohol, 1% by weight, was added to deionized water to make 500 mL of solution. Stirring was started at 300 rpm. Test ingredient was added to both a 500 mL control deionized water and the 500 mL aromatic alcohol solution as a stopwatch timer was started. The timer was stopped when solution was completely clear and/or no particles of the test ingredient were visible in either sample. This is noted as the “dissolution time”, or time to dissolve. Aromatic alcohols can help solubilize hard-to-dissolve formulation ingredients more quickly and/or without the use of heat. The addition of 1.0 wt. % aromatic alcohol decreased the dissolution time of several common, hard-to-dissolve ingredients as shown in Table 1 below. Table 1 reflects the time to completely dissolve ingredients in water (Control) or water with 1 wt. % aromatic alcohol (R=3 denotes 3-phenylpropanol; R=4 denotes 2-methyl-3-phenylpropanol).

[6] = Formulation stability of general purpose cleaner on storage; format: physicochemical; conditions: 0.5 wt. % aromatic alcohol; pH 7; 7 days at 22° C.
Description: Rapid and complete dissolution of raw materials into aqueous solutions can prevent problems with solution instability over time. For example, a general purpose cleaner containing sodium coco fatty alcohol sulfate and 0.1 wt. % of either hydroxyethyl cellulose or xanthan gum (Table 2) becomes unstable over time across a range of pH values.
Panel (b) of FIG. 10 compares a general purpose cleaner containing hydroxyethyl cellulose at pH 7 with (right side of panel) and without (left side of panel) the use of 0.5 wt. % aromatic alcohol, stored at room temperature for one week, then shaken to disperse precipitants. Panel (c) of FIG. 10 compares a general purpose cleaner containing xanthan gum at pH 5 with (right side of panel) and without (left side of panel) the use of 0.5 wt. % aromatic alcohol (right,) stored at room temperature for one week, then shaken to disperse precipitants.
Similar observations were made with formulations of a general purpose cleaner in the absence of hydroxyethyl cellulose or xanthan gum but containing sodium coco fatty alcohol sulfate surfactant (FIG. 11). FIG. 11 compares a sample of a general purpose cleaner at pH 7 with and without 0.5 wt. % aromatic alcohol (R=3, 3-phenylpropanol). […]

[7] = Coco fatty alcohol sulfate 2.0 wt. %

In the case of OCCCc1ccccc1 [3-phenylpropanol], the “low shear viscosity increase over the control” value (from here on “low shear viscosity increase”) ([1]; at 10 s^-1) is reported as 68%, the “high shear viscosity increase over the control” value (“high shear viscosity increase” for short) ([1]; at 70 s^-1) is reported as “roughly 100%” and the “high shear viscosity increase” value ([2]; 0.5 wt. % aromatic alcohol) is reported as “roughly 43%”. The “low shear viscosity increase” value ([2]; 0.5 wt. % aromatic alcohol) was “roughly 36%”, the “foam destabilization (foam loss, % of initial foam volume)” value [3] was “significantly destabilized foam” and the “foam stability of commercial products” value [4] was “not reduced”. The “Time to Dissolve at 22° C.” value ([5]; 1,2-octanediol 1.0 wt. %) was 8.1 min, the “Time to Dissolve at 22° C.” value [5, 7] was 4.0 min and the “homogeneity of general purpose cleaner without hydroxyethyl cellulose or xanthan gum, containing coco fatty alcohol sulfate” value [6] was “remained homogeneous”.
For CC(CO)Cc1ccccc1 (stereo not shown) [2-methyl-3-phenylpropanol], the “high shear viscosity increase” value ([2]; 0.5 wt. % aromatic alcohol) was “approximately 37%”, the “low shear viscosity increase” value ([2]; 0.5 wt. % aromatic alcohol) was 110% and the “high shear viscosity increase” value ([2]; 1.0 wt. % aromatic alcohol) was 94%. For the same compound, the “low shear viscosity increase” value ([2]; 1.0 wt. % aromatic alcohol) was 56%, the “foam destabilization (foam loss, % of initial foam volume)” value [3] was “significantly destabilized foam” and the “Time to Dissolve at 22° C.” value ([5]; 1,2-octanediol 1.0 wt. %) was 7.8 min. The “Time to Dissolve at 22° C.” value [5, 7] was 3.5 min.
